Source: patent US20220267271A1, “WNT ACTIVATORS AND METHODS OF USE” (MAYO FOUNDATION FOR MEDICAL EDUCATION AND RESEARCH, priority 2019, published 2022)
In brackets after ≈: the same amount, converted by molar mass. Read-outs that look alike come from different tables or passages of the source.

Columns and labels:
[1] = Aqueous (kinetic) solubility assay in PBS pH 7.4; assay type: physicochemical; details: phosphate-buffered saline, 25 °C, pH 7.4, aqueous buffer, kinetic from dmso stock, PBS pH 7.4, 2% DMSO, two hours, assay range 2-200 μM
Procedure: Aqueous solubility assay: Using a 10 mM stock solution of the compound in 100% DMSO, dilutions were prepared to a theoretical concentration of 200 μM in duplicates in phosphate-buffered saline pH 7.4 with 2% final DMSO. In parallel, compound dilutions in 50% acetonitrile/PBS were prepared to theoretical concentrations of 0 μM (blank), 50 μM, 100 μM and 200 μM with 2% final DMSO to generate calibration curves. The experimental compound dilutions in PBS were further allowed to equilibrate at 25° C. on a thermostatic orbital shaker for two hours and then centrifuged at 14000 rpm, 5 min and filtered through HTS filter plates using a vacuum manifold. The supernatants of test compounds were diluted 2-fold with acetonitrile contained 4% DMSO before measuring. Ondansetron was used as reference compound to control proper assay performance. 200 μl of samples were transferred to 96-well plate and measured in 200-550 nm range with 5 nm step. The effective range of this assay is approximately 2-200 μM and the compounds returning values close to the upper limit of the range may have higher actual solubility (e.g. 5 ? deoxy-5-fluorouddine).

[2] = tested on: hCMEC/D3 cells; test: Cell viability assay (CellTiter-Glo) in hCMEC/D3 cells; assay type: cell-based, human; details: hCMEC/D3 cells, 0.3, 1, 3, 10 and 30 μM, 24 h
Procedure: The human brain endothelial capillary hCMEC/D3 cells were cultured with compounds at the indicated concentrations for 24 h. Cell viability was assessed by the Cell TitreGlo Assay system from Promega. Data represent mean±SD from three independent experiments. *P<0.05.
Cell viability assay: Human blood-brain barrier hCMEC/D3 cells were seeded into 96-well tissue culture treated microtiter plates at a density of 20,000 cells/well. After 24 h incubation, the cells were treated with the test compounds at the indicated concentrations for 24 h. Cell viability was measured by the CellTiter-Glo Assay (Promega), which is a luminescent assay that is an indicator of live cells as a function of metabolic activity and ATP content.

[3] = tested on: S. typhimurium TA100; test: Ames test, bacterial reverse mutation assay, TA100; set-up: species or system Salmonella typhimuium; details: 1011 and 1015 at 400 μM, mean ± SD, n = 3
Procedure: (§1) Ames test: According to the OECD Guidelines For Testing Of Chemicals, experiments with the tested agents, positive and negative controls, were conducted in triplicates on 6 tester strains, S. typhimurium: TA98, TA100, TA1535, TA1537 and E. coli: wp2[pKM101]+wp2 uvrA mixed 1:2. Dimethyl sulfoxide (DMSO) was used as the vehicle control for all tester strains in mutagenicity assay with and without metabolic activation. Compounds with known mutagenic activity were used as the positive controls in mutagenicity assay without metabolic activation: 2-nitrofluorene (0.1 μg/plate) for TA98, 4-nitroquinoline N-oxide (0.1 μg/plate) for TA100, sodium azide (0.2 μg/plate) for TA1535, 9-aminoacridine (7.5 μg/plate) for TA1537, and 4-nitroquinoline N-oxide (0.1 μg/plate) for E. coli. 2-Aminoantracene in final concentration 0.4 μg/ml was used as the positive control (the solution of 2-aminoantracene in DMSO was prepared immediately before experiment) in test with metabolic activation. For each experiment tester strain cultures were grown overnight in Oxoid nutrient broth #2 at 37° C. with shaking at 235 rpm to a density of 1-2×10^9 colony forming units/ml (OD600˜1.5). The S9 mix, which is consist of 9000 g supernatant fraction of rat liver homogenate (S9 fraction), was prepared immediately prior to its use in experimental procedure.
(§2) The tester strain (10 μl of overnight culture) was mixed with the test agent (10 μl of the DMSO stock) and GM liquid medium (30 μl) or S9 mix (30 μl). Then, 200 μl of molten top agar supplemented with histidine/biotin (final concentration 0.05 mM) for S. typhimurium and tryptophan (final concentration 0.025 mM) for E. coli were added to the tube (top agar was kept at 44° C. to prevent hardening). The mixed suspension was poured onto the surface of a GM agar plate (2.0 ml of GM agar per plate). After the top agar solidified, the plates were inverted and incubated at 37° C. for 48 hours. The results were expressed as number of revertant colonies per plate. The final concentrations of the test compounds in the mutagenicity assay with all tester strains in both the presence and absence of S9 mix were 400 μM. All concentrations were tested in triplicates.

[4] = tested on: S. typhimurium TA1535; test: Ames test, bacterial reverse mutation assay, TA1535; set-up: species or system Salmonella typhimuium; details: 1011 and 1015 at 400 μM, mean ± SD, n = 3
Procedure: as §1, §2

[5] = tested on: E. coli strain TOP10-pTac-lux-CDABE; test: Bacterial cytotoxicity evaluation (luminescence); details: 6.25-400 μM, 4 h
Procedure: In addition, bacterial cytotoxicity evaluation was performed using E. coli strain TOP10-pTac-lux-CDABE, expressing both luciferase (a heterodimer of LuxA and LuxB subunits) and the enzymes required for the production of luciferase substrate (LuxC, LuxD and LuxE). For the experiment, bacterial culture was grown overnight in LB medium at 37° C. with shaking at 250 rpm. The overnight culture was diluted 1:666 into fresh LB medium supplemented with 50 μg/ml kanamycin and incubated at 37° C. and 250 rpm to OD600 0.4-0.5. Serial dilutions of the test compounds in DMSO were prepared (40 mM, 20 mM, 10 mM, 5 mM, 2.5 mM, 1.25 mM, 0.625 mM) and 4 μl aliquots of each solution were transferred into 96-well plate and mixed with 96 μl of 0.9% NaCl. Then, 10 μl of the dilutions were dispensed into the appropriate wells of 384-well white screening microplate. 30 μl aliquots of freshly grown bacterial culture at OD600 of 0.4-0.5 were added to each well with compounds' dilutions (Final concentration of the test compounds were 400 μM, 200 μM, 100 μM, 50 μM, 25 μM, 12.5 μM, 6.25 μM). The plate was incubated for 4 h at 37° C. and the luminescence.

[6] = read-out: PBS solubility, pH 7.4, μM Exp1
[7] = read-out: PBS solubility, pH 7.4, μM Exp2
[8] = read-out: PBS solubility, pH 7.4, μM Mean
[9] = with metabolic activation (S9 mix)

SMILES	solubility at 2 h [1, 6]	solubility at 2 h [1, 7]	solubility at 2 h [1, 8]	cytotoxicity (cell viability) [2]	Number of revertant colonies per plate, TA100 [3, 9]	Number of revertant colonies per plate, TA100 ([3]; without metabolic activation)	Number of revertant colonies per plate, TA1535 [4, 9]	Number of revertant colonies per plate, TA1535 ([4]; without metabolic activation)	cytotoxicity for bacterial cells [5]
Nc1ccccc1NC(=O)c1ccc(C(=O)NCCN2CCC3(CCCCC3)CC2)cc1 [Compound 1020]	200 µM (≈ 86.9 µg/mL)	205 µM (≈ 89.1 µg/mL)	≥ 200 µM	–	–	–	–	–	–
Nc1ccccc1NC(=O)c1ccc(C(=O)NCC2CCN2C2CCCC2)cn1 (stereo not drawn) [Compound 1015]	210 µM (≈ 82.6 µg/mL)	211 µM (≈ 83 µg/mL)	≥ 200 µM	not toxic at or below the 10 μM concentration	2.0 ± 1.0 revertant colonies per plate	1.33 ± 0.6 revertant colonies per plate	0.7 ± 1.2 revertant colonies per plate	0.3 ± 0.6 revertant colonies per plate	no cytotoxicity
CC1CCCC(C)N1CCNC(=O)c1ccc(C(=O)Nc2ccccc2N)nc1 (stereo not drawn) [Compound 1011]	207 µM (≈ 81.9 µg/mL)	207 µM (≈ 81.9 µg/mL)	≥ 200 µM	not toxic at all the tested concentrations	4.7 ± 2.1 revertant colonies per plate	4.3 ± 3.5 revertant colonies per plate	0.7 ± 0.6 revertant colonies per plate	1.7 ± 2.1 revertant colonies per plate	no cytotoxicity
